Patent publication US9333202B2, “Non-retinoid antagonists for treatment of age-related macular degeneration and stargardt disease” (THE TRUSTEES OF COLUMBIA UNIVERSITY IN THE CITY OF NEW YORK, priority 2012, dated 2016)

Biological target: RBP4-TTR interaction (Homo sapiens, UniProt P02753)
Assay: HTRF/TR-FRET assay for retinol-dependent RBP4-TTR interaction (1 μM retinol)
Type: biochemical
Set-up: human RBP4 fragment (amino acids 19-201) was expressed in the Gold(DE3)pLysS E. coli strain; made in house; host or cells: E. coli Gold(DE3)pLysS (Stratagene), pMAL-c4x vector
Description: Bacterially expressed MBP-RBP4 and untagged TTR were used in this assay. For the use in the TR-FRET assay the maltose binding protein (MBP)-tagged human RBP4 fragment (amino acids 19-201) was expressed in the Gold(DE3)pLysS E. coli strain (Stratagene) using the […] vector. Following cell lysis, recombinant RBP4 was purified from the soluble fraction using the ACTA FPLC system (GE Healthcare) equipped with the 5-ml the MBP Trap HP column. Human untagged TTR was purchased from Calbiochem. Untagged TTR was labeled directly with Eu^3+ Cryptate-NHS using the HTRF Cryptate Labeling kit from CisBio following the manufacturer's recommendations. HTRF assay was performed in white low volume 384 well plates (Greiner-Bio) in a final assay volume of 16 μl per well. The reaction buffer contained 10 mM Tris-HCl pH 7.5, 1 mM DTT, 0.05% NP-40, 0.05% Prionex, 6% glycerol, and 400 mM KF. Each reaction contained 60 nM MBP-RBP4 and 2 nM TTR-Eu along with 26.7 nM of anti-MBP antibody conjugated with d2 (Cisbio). Titration of test compounds in this assay was conducted in the presence of 1 μM retinol. All reactions were assembled in the dark under dim red light and incubated overnight at +4° C. wrapped in aluminum foil. TR-FRET signal was measured in the SpectraMax M5e Multimode Plate Reader (Molecular Device). Fluorescence was excited at 337 nm and two readings per well were taken: Reading 1 for time-gated energy transfer from Eu(K) to d2 (337 nm excitation, 668 nm emission, counting delay 75 microseconds, counting window 100 microseconds) and Reading 2 for Eu(K) time-gated fluorescence (337 nm excitation, 620 nm emission, counting delay 400 microseconds, counting window 400 microseconds). The TR-FRET signal was expressed as the ratio of fluorescence intensity: Flu665/Flu620×10,000.

Row | Structure (SMILES) | Antagonism of RBP4-TTR interaction in vitro (in words)
1 | FC(F)(F)c1cccc(CCN2CCN(c3ncccc3C(F)(F)F)CC2)c1 [Compound 17] | antagonize RBP4-TTR interaction in vitro at biologically significant concentrations
2 | FC(F)(F)c1cccc(CCN2CCN(c3ncnc4sc5c(c34)CCC5)CC2)c1 [Compound 20] | antagonize RBP4-TTR interaction in vitro at biologically significant concentrations
3 | FC(F)(F)c1cccc(CN2CCN(c3ncnc4sc5c(c34)CCC5)CC2)c1 [Compound 21] | antagonize RBP4-TTR interaction in vitro at biologically significant concentrations
4 | O=C(Cc1ccccc1C(F)(F)F)N1CCN(c2ncnc3sc4c(c23)CCC4)CC1 [Compound 22] | antagonize RBP4-TTR interaction in vitro at biologically significant concentrations
5 | O=C(c1ccc(C(F)(F)F)cc1F)N1CCC(c2ccccc2C(F)(F)F)CC1 [Compound 32] | antagonize RBP4-TTR interaction in vitro at biologically significant concentrations
6 | O=C(c1ccc(C(F)(F)F)c(F)c1)N1CCC(c2ccccc2C(F)(F)F)CC1 [Compound 33] | antagonize RBP4-TTR interaction in vitro at biologically significant concentrations
7 | O=C(c1cccc(C(F)(F)F)c1)N1CCC(c2ccccc2C(F)(F)F)CC1 [Compound 34] | antagonize RBP4-TTR interaction in vitro at biologically significant concentrations
8 | O=C(c1ccc(F)c(C(F)(F)F)c1)N1CCC(c2ccccc2C(F)(F)F)CC1 [Compound 35] | antagonize RBP4-TTR interaction in vitro at biologically significant concentrations
9 | O=C(c1ccc(Cl)c(C(F)(F)F)c1)N1CCC(c2ccccc2C(F)(F)F)CC1 [Compound 36] | antagonize RBP4-TTR interaction in vitro at biologically significant concentrations
10 | COC(=O)c1cccc(C(=O)N2CCC(c3ccccc3C(F)(F)F)CC2)c1 [Compound 37] | antagonize RBP4-TTR interaction in vitro at biologically significant concentrations
11 | O=C(Cc1ccccc1C(F)(F)F)N1CCC(c2ccccc2C(F)(F)F)CC1 [Compound 38] | antagonize RBP4-TTR interaction in vitro at biologically significant concentrations
12 | O=C(c1ccnc(C(F)(F)F)c1)N1CCC(c2ccccc2C(F)(F)F)CC1 [Compound 39] | antagonize RBP4-TTR interaction in vitro at biologically significant concentrations
13 | O=C(c1cnccc1C(F)(F)F)N1CCC(c2ccccc2C(F)(F)F)CC1 [Compound 40] | antagonize RBP4-TTR interaction in vitro at biologically significant concentrations
14 | O=C(c1cc(C(F)(F)F)ccn1)N1CCC(c2ccccc2C(F)(F)F)CC1 [Compound 41] | antagonize RBP4-TTR interaction in vitro at biologically significant concentrations
15 | FC(F)(F)c1ccccc1C1CCN(c2ncccn2)CC1 [Compound 42] | antagonize RBP4-TTR interaction in vitro at biologically significant concentrations
16 | Cc1ccnc(N2CCC(c3ccccc3C(F)(F)F)CC2)n1 [Compound 43] | antagonize RBP4-TTR interaction in vitro at biologically significant concentrations
17 | FC(F)(F)c1ccnc(N2CCC(c3ccccc3C(F)(F)F)CC2)n1 [Compound 44] | antagonize RBP4-TTR interaction in vitro at biologically significant concentrations

Row | Structure (SMILES) | Antagonism of RBP4-TTR interaction in vitro (in words)
18 | COC(=O)c1cc(C)nc(N2CCC(c3ccccc3C(F)(F)F)CC2)n1 [Compound 45] | antagonize RBP4-TTR interaction in vitro at biologically significant concentrations
19 | FC(F)(F)c1ccccc1C1CCN(c2nccc(-c3ccccc3)n2)CC1 [Compound 46] | antagonize RBP4-TTR interaction in vitro at biologically significant concentrations
20 | Fc1cnc(N2CCC(c3ccccc3C(F)(F)F)CC2)nc1 [Compound 47] | antagonize RBP4-TTR interaction in vitro at biologically significant concentrations
21 | Cn1cnc(C(=O)N2CCC(c3ccccc3C(F)(F)F)CC2)c1 [Compound 49] | antagonize RBP4-TTR interaction in vitro at biologically significant concentrations
22 | O=C(c1cn(Cc2ccccc2)cn1)N1CCC(c2ccccc2C(F)(F)F)CC1 [Compound 50] | antagonize RBP4-TTR interaction in vitro at biologically significant concentrations
23 | Cn1cncc1C(=O)N1CCC(c2ccccc2C(F)(F)F)CC1 [Compound 51] | antagonize RBP4-TTR interaction in vitro at biologically significant concentrations
24 | Cn1nc(C(F)(F)F)cc1C(=O)N1CCC(c2ccccc2C(F)(F)F)CC1 [Compound 52] | antagonize RBP4-TTR interaction in vitro at biologically significant concentrations
25 | O=C(c1cc(C(F)(F)F)[nH]n1)N1CCC(c2ccccc2C(F)(F)F)CC1 [Compound 53] | antagonize RBP4-TTR interaction in vitro at biologically significant concentrations
26 | O=C(c1nccs1)N1CCC(c2ccccc2C(F)(F)F)CC1 [Compound 54] | antagonize RBP4-TTR interaction in vitro at biologically significant concentrations
27 | O=C(c1ccco1)N1CCC(c2ccccc2C(F)(F)F)CC1 [Compound 55] | antagonize RBP4-TTR interaction in vitro at biologically significant concentrations
28 | O=C(O)c1cc(-c2ccccc2)ccc1NC(=O)N1CCC(c2ccccc2C(F)(F)F)CC1 [Compound 56] | antagonize RBP4-TTR interaction in vitro at biologically significant concentrations
29 | O=C(O)c1cc(-c2ccc(F)cc2)ccc1NC(=O)N1CCC(c2ccccc2C(F)(F)F)CC1 [Compound 57] | antagonize RBP4-TTR interaction in vitro at biologically significant concentrations
30 | CS(=O)(=O)c1ccc(-c2ccc(NC(=O)N3CCC(c4ccccc4C(F)(F)F)CC3)c(C(=O)O)c2)cc1 [Compound 58] | antagonize RBP4-TTR interaction in vitro at biologically significant concentrations
31 | COC(=O)c1ccccc1NC(=O)N1CCC(c2ccccc2C(F)(F)F)CC1 [Compound 59] | antagonize RBP4-TTR interaction in vitro at biologically significant concentrations
32 | COC(=O)c1ccc(Cl)cc1NC(=O)N1CCC(c2ccccc2C(F)(F)F)CC1 [Compound 60] | antagonize RBP4-TTR interaction in vitro at biologically significant concentrations
33 | COC(=O)c1cc(Br)ccc1NC(=O)N1CCC(c2ccccc2C(F)(F)F)CC1 [Compound 61] | antagonize RBP4-TTR interaction in vitro at biologically significant concentrations
34 | O=C(O)c1ccccc1NC(=O)N1CCN(c2ncncc2C(F)(F)F)CC1 [Compound 63] | antagonize RBP4-TTR interaction in vitro at biologically significant concentrations
